Earlier results in patent US20130137781A1, “PHARMACEUTICAL PREPARATION FOR CONTROLLING WATER-SOLUBLE DRUG RELEASE” (priority 2010, published 2013).

What was measured:
[1] = common logarithm of n-octanol/water partition coefficient

Row | Log P [1] | thermal stability in solution state | SMILES
1 | −3.2 | thermally unstable in solution state | N[C@H](C(=O)O)[C@H](O)c1ccc(O)c(O)c1 [droxidopa]
2 | −1.5 | – | N[C@@H](Cc1ccccc1)C(=O)O [L-phenylalanine]
3 | 0.2 | – | NS(=O)(=O)Cc1noc2ccccc12 [zonisamide]
